What was measured:
BPTFPHD (L2583–N2751) = biological target: T1, BPTFPHD (L2583–N2751) (Homo sapiens, UniProt Q12830); assay: ITC, association of histone H3 peptides with BPTFPHD; format: binding
T1 construct: BPTFPHD (L2583–N2751); made in house; host or cells: E. coli
Protocol: ITC studies followed a reported procedure[26]. The buffer used corresponded to that used in the final protein purification step. Briefly, TAF3PHD and KDM4ATTD: [Tris (50 mM) in water (pH 7.5)]; KDM5APHD3 and BTPFPHD: [Tris (50 mM), NaCl (20 mM) in water (pH 7.5)]; [Tris (25 mM), NaCl (50 mM), 1,4-dithiothreitol (1.0 mM) in water (pH 7.5)]. Experiments were conducted using ITC200 automated (GE Healthcare Life Sciences, USA) instrument at 25 °C. Histone peptide titrations were performed with the same reader batches. Solutions of the reader in buffer (25–40 µM) and of the histone H3 peptide (350–600 µM) in buffer were prepared. The prepared solutions were plated into a 96-well plate and inserted into the instrument for analysis. Experiments were performed according to manufacturer’s default settings: Plate pre-rinse syringe clean. A total of 19 injections were performed; each experiment was repeated 3–5 times. Heats of dilution for histone peptides determined in control experiments were subtracted from the titration binding data.

SGF29TTD (R115–K293) = biological target: T2, SGF29TTD (R115–K293) (Homo sapiens, UniProt Q96ES7); assay: ITC, association of histone H3 peptides with SGF29TTD; format: binding
T2 construct: SGF29TTD (R115–K293); made in house; host or cells: E. coli
T2 sequence (Q96ES7 115-293): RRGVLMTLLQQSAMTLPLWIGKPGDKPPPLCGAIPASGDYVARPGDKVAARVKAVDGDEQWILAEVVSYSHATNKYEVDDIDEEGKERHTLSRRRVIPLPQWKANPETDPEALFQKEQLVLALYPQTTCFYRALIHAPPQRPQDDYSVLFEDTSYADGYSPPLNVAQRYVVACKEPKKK
Excerpt: We investigated the thermodynamics of association of the H3KP4me3 peptide with five representative human reader domains containing either a PHD zinc finger or TTD, i.e. KDM5APHD3 (JARID1A-PHD3, residues M1489–V1641)[10], TAF3PHD (R857–K924)[22], BPTFPHD (L2583–N2751)[23], SGF29TTD (R115–K293)[24] and KDM4ATTD (JMJD2A, Q897-P1011)[25], selected on the basis of their preference for binding Ν^ε-trimethyllysine over other (non)methylation marks (Kme0 < Kme1 < Kme2 < Kme3), and their domain and aromatic cage diversity. The recombinant readers were produced in E. coli following reported procedures. Isothermal titration calorimetric (ITC) analyses were used to determine the dissociation constant (Kd), the Gibbs free energy of binding (ΔG°), the enthalpy of binding (ΔH°), and the entropy of binding (ΔS°). […] (Table 1, Fig. 2, Supplementary Fig. 1).
The following purified reader domains: TAF3PHD (R857-K924), KDM5APHD3 (JARID1A, M1489-V1641), BPTFPHD (L2583-N2751), KDM4ATTD (JMJD2A, Q897-P1011) and SGF29TTD (R115-K293) were prepared as reported[10],[22]–[26]. The histone lysine demethylase were produced and purified to high purity via reported procedures KDM3A (JMJD1A, T515-S1317)[41], KDM4AJmjC[39] (JMJD2A, M1-L359), KDM4EJmjC (JMJD2E, M1–Q337)[34] and KDM7B[40] (PHF8, M37-N483 [NP_001171]). KDM5DJmjC was produced using an N-terminal hexa-His tagged KDM4D (KDM4DM1-L358) DNA construct, transformed into BL21(DE3) competent cells for recombinant protein production. Colonies were used to inoculate of LB media (50 mL) containing kanamycin (50 µg·mL^−1) and chloramphenicol (34 µg·mL^−1), which was placed in a 37 °C shaker overnight. The starter culture (10 mL) was used to inoculate TB media (6 × 1 L) containing kanamycin (50 µg·mL^−1) in 2 L baffled shaker flasks. After reaching an of OD600 of ~0.8, the temperature was reduced to 18 °C; at OD600 ~0.9 the cells were induced by the IPTG (0.5 mM) addition. After shaking overnight, the culture was centrifuged (5000 rpm, 10 mins), the media was decanted, and the cell pellet was suspended in Lysis Buffer [HEPES (50 mM), NaCl (500 mM), imidazole (20 mM), glycerol (5%) and TCEP (0.5 mM) in water (pH 7.4)]. The suspension was lysed by passaging through a high-pressure cell breaker (Avestin – EmulsiFlex-C5) for three rounds. The lysate was cleared by centrifugation (60 minutes, 36,000 × g, 4 °C), then loaded onto a Ni NTA gravity column. After extensive rinsing of the Ni-NTA gravity column with lysis buffer, the His-tagged protein was eluted in lysis buffer containing 300 mM imidazole. The eluted protein was concentrated and subjected to gel filtration chromatography using an AKTA Xpress system, an S200 16/600 gel filtration column, and GF buffer [HEPES (50 mM), NaCl (150 mM), glycerol (5%) and TCEP (0.5 mM) in water (pH 7.4)]. The protein identity was verified by LC-MS (ESI-TOF) observing a mass of 43759.7 Da, in accord with the predicted mass of 43751.6 Da.
ITC studies followed a reported procedure. The buffer used corresponded to that used in the final protein purification step. […] Histone peptide titrations were performed with the same reader batches. Solutions of the reader in buffer (25–40 µM) and of the histone H3 peptide (350–600 µM) in buffer were prepared. […] Heats of dilution for histone peptides determined in control experiments were subtracted from the titration binding data. […]

KDM4DJmjC (M1–L358) = assay: MALDI-TOF demethylation assay, KDM4DJmjC; format: biochemical, human; settings: KDM4DJmjC 2.4 µM, peptide 5.0 µM, 1 hr, duplicates
Protocol: A Bruker Daltonics MALDI-TOF/TOF AutoflexSpeed machine and Bruker MTP 384 target plates (polished steel BC, Part: 8280781) were used. The machine was controlled using Flex control (v. 3.4 build 135.10) and Compass for flex series (v. 1.4) software. Measurements were in the positive ion mode with the reflectron mode enabled. Incubations employed ProxiPlate-384™ (Perkin Elmer) plates into which was pipetted a solution of [H3_1-15K9me3 (10.0 µM), (+)-sodium L-ascorbate (1.0 mM), (NH4)2Fe(II)(SO4)2 (100 µM), di-sodium 2-oxoglutarate (200 µM) in buffer (HEPES (50 mM)) in MilliQ (pH 7.5)] (5.0 µL) using ClipTip™ (Thermo Scientific™) pipette tips and E1-ClipTip™ (Thermo Scientific™). The enzyme solution [KDM4EJmjC (1.0 µM) in HEPES (50 mM)] (5.0 µL) was added to initiate reaction at 37 °C. Reactions were quenched with formic acid in water (2%, 5.0 µL).

[1] = 25 °C, H3 1-10 peptide, Tris (50 mM), NaCl (20 mM), pH 7.5, from 3 to 5 experiments, ± SD
[2] = 25 °C, H3 1-10 peptide, pH 7.5, from 3 to 5 experiments, ± SD

## C[C@H](N)C(=O)N[C@@H](CCCNC(=N)N)C(=O)N[C@H](C(=O)N[C@@H](CCCC[P+](C)(C)C)C(=O)N[C@@H](CCC(N)=O)C(=O)N[C@H](C(=O)N[C@@H](C)C(=O)N[C@@H](CCCNC(=N)N)C(=O)N[C@@H](CCCCN)C(=O)N[C@@H](CO)C(N)=O)[C@@H](C)O)[C@@H](C)O [H3KP4me3]
BPTFPHD (L2583–N2751); [1]
  -TΔS°: 4.7 ± 0.1 kcal/mol
  ΔG°: -9.1 ± 0.1 kcal/mol
  ΔH°: -13.8 ± 0.1 kcal/mol
BPTFPHD (L2583–N2751); BPTFPHD
  fold stronger binding (ΔKd), H3KP4me3 versus H3K4me3: ~ 7 fold
SGF29TTD (R115–K293); [2]
  -TΔS°: 1.0 ± 0.1 kcal/mol
  ΔG°: -7.6 ± 0.1 kcal/mol
  ΔH°: -8.6 ± 0.1 kcal/mol
SGF29TTD (R115–K293); SGF29TTD
  binding affinity relative to H3K4me3: comparable binding affinity for H3K4me3 and H3KP4me3

## ARTKQTAR(KPme3)STGGKA [H3KP9me3, histone H3 residues 1–15 with trimethylphosphonium lysine analogue at position 9]
KDM4DJmjC (M1–L358)
  demethylation: substantial turnover to H3KP9me2

From paper PMC7613515, “Reading and erasing of the phosphonium analogue of trimethyllysine by epigenetic proteins” (Communications Chemistry, 2022)
